What all share (format): cell-based
One assay relates to MM1S cells. The assay is described as follows: MTT cell proliferation assay (MM1S). Particulars: Homo sapiens, MM1.S; MM1S multiple myeloma cells; approximately 64-72 hours incubation; 1 nM to 30 μM. As to the method: (§1) The MTT cell proliferation assay was used to study the cytotoxic properties of the compounds. The assay was performed according to the method described by Roche Molecular Biochemicals, with minor modifications. The assay is based on the cleavage of the tetrazolium salt, MTT, in the presence of an electron-coupling reagent. The water-insoluble formazan salt produced must be solubilized in an additional step. Cells grown in a 96-well tissue culture plate were incubated with the MTT solution for approximately 4 hours. After this incubation period, a water-insoluble formazan dye formed. After solubilization, the formazan dye was quantitated using a scanning multi-well spectrophotometer (ELISA reader). […] The cells were seeded at 5,000-10,000 cells in each well of 96-well plate in 100 μL of fresh culture medium and were allowed to attach overnight. The stock solutions of the compounds were diluted in 100 μL cell culture medium to obtain eight concentrations of each test compound, ranging from 1 nM to 30 μM. […] All optical densities were measured at 490 nm using a Vmax Kinetic Microplate Reader (Molecular Devices). In most cases, the assay was performed in duplicate and the results were presented as a mean percent inhibition to the negative control±SE. The following formula was used to calculate the percent of inhibition: Inhibition (%)=(1−(ODo/OD))×100.
(§2) The compounds were tested against Z138, MM1S and 3T3 cells. The Z138 cell line is a mature B-cell acute lymphoblastic leukemia cell line derived from a patient with chronic lumphocytic leukemia. The MM1S cell line was established from the peripheral blood of a human multiple myeloma patient. 3T3 cells are standard fibroblast cells; they were originally isolated from Swiss mouse embryo tissue.
Background: Formazan colour is commonly taken as a measure of viable cells.

Another assay relates to Z138 cells. The assay can be described thus: MTT cell proliferation assay (Z138). Particulars: Homo sapiens, Z-138, approximately 64-72 hours incubation, 1 nM to 30 μM. On the procedure: as §1, §2
Another assay concerns 3T3 cells. The assay is described as follows: MTT cell proliferation assay (3T3). Particulars: Mus musculus, NIH3T3; 3T3 fibroblast cells; approximately 64-72 hours incubation; 1 nM to 30 μM. As to the method: as §1, §2

Molecules are shown by their SMILES.

As to `CN(C)S(=O)(=O)c1ccc(/C(=C\n2cnc(-c3cc(C(F)(F)F)cc(C(F)(F)F)c3)n2)C(N)=O)cc1` [Compound 104, (E)-3-(3-(3,5-bis(trifluoromethyl)phenyl)-1H-1,2,4-triazol-1-yl)-2-(4-(N,N-dimethylsulfamoyl)phenyl)acrylamide], the IC50 (usually the concentration that inhibits the measured activity by half) in the assay with MM1S cells is 100 to 5000 nM; in the assay with Z138 cells, 100 to 5000 nM; with 3T3 cells, over 30000 nM.
Turning to `CC1(C)CN(S(=O)(=O)c2ccc(/C(=C\n3cnc(-c4cc(C(F)(F)F)cc(C(F)(F)F)c4)n3)C(N)=O)cc2)CCO1` [Compound 116, (E)-3-(3-(3,5-bis(trifluoromethyl)phenyl)-1H-1,2,4-triazol-1-yl)-2-(4-(2,2-dimethylmorpholinosulfonyl)phenyl)acrylamide], the IC50 with MM1S cells, with Z138 cells and in the assay with 3T3 cells was 100 to 5000 nM each time.
`NC(=O)/C(=C/n1cnc(-c2cc(C(F)(F)F)cc(C(F)(F)F)c2)n1)c1cccc(S(=O)(=O)N2CCC(F)CC2)c1` [Compound 120, (E)-3-(3-(3,5-bis(trifluoromethyl)phenyl)-1H-1,2,4-triazol-1-yl)-2-(3-(4-fluoropiperidin-1-ylsulfonyl)phenyl)acrylamide]: the IC50 with MM1S cells is 100 to 5000 nM; with Z138 cells, 100 to 5000 nM; with 3T3 cells, over 30000 nM.
Turning to `CN1CCN(S(=O)(=O)c2cccc(/C(=C\n3cnc(-c4cc(C(F)(F)F)cc(C(F)(F)F)c4)n3)C(N)=O)c2)CC1` [Compound 124, (E)-3-(3-(3,5-bis(trifluoromethyl)phenyl)-1H-1,2,4-triazol-1-yl)-2-(3-(4-methylpiperazin-1-ylsulfonyl)phenyl)acrylamide], the IC50 in the assay on MM1S cells was 100 to 5000 nM; in the assay on Z138 cells, 100 to 5000 nM; in the assay on 3T3 cells, over 30000 nM.
Consider `NC(=O)/C(=C/n1cnc(-c2cc(C(F)(F)F)cc(C(F)(F)F)c2)n1)c1ccc(S(=O)(=O)N2CCCC2)cc1` [Compound 112, (E)-3-(3-(3,5-bis(trifluoromethyl)phenyl)-1H-1,2,4-triazol-1-yl)-2-(4-(pyrrolidin-1-ylsulfonyl)phenyl)acrylamide], for which the IC50 in the assay on MM1S cells is under 100 nM; with Z138 cells, under 100 nM; in the assay with 3T3 cells, 100 to 5000 nM.
In the case of `NC(=O)/C(=C/n1cnc(-c2cc(C(F)(F)F)cc(C(F)(F)F)c2)n1)c1cccc(S(=O)(=O)N2CCC(F)(F)CC2)c1` [Compound 122, (E)-3-(3-(3,5-bis(trifluoromethyl)phenyl)-1H-1,2,4-triazol-1-yl)-2-(3-(4,4-difluoropiperidin-1-ylsulfonyl)phenyl)acrylamide], the figures for the IC50 in the assay on MM1S cells, in the assay with Z138 cells and in the assay with 3T3 cells were 100 to 5000 nM, 100 to 5000 nM and over 30000 nM, respectively.
With `NC(=O)/C(=C/n1cnc(-c2cc(C(F)(F)F)cc(C(F)(F)F)c2)n1)c1ccc(S(=O)(=O)N2CCCOCC2)cc1` [Compound 118, (E)-2-(4-(1,4-oxazepan-4-ylsulfonyl)phenyl)-3-(3-(3,5-bis(trifluoromethyl)phenyl)-1H-1,2,4-triazol-1-yl)acrylamide], the IC50 in the assay with MM1S cells is under 100 nM; with Z138 cells it was under 100 nM; in the assay with 3T3 cells it was 100 to 5000 nM.
In the case of `NC(=O)/C(=C/n1cnc(-c2cc(C(F)(F)F)cc(C(F)(F)F)c2)n1)c1ccc(S(=O)(=O)N2CC(F)C2)cc1` [Compound 110, (E)-3-(3-(3,5-bis(trifluoromethyl)phenyl)-1H-1,2,4-triazol-1-yl)-2-(4-(3-fluoroazetidin-1-ylsulfonyl)phenyl)acrylamide], the IC50 is under 100 nM in the assay with MM1S cells, under 100 nM with Z138 cells and 100 to 5000 nM in the assay on 3T3 cells.
In the case of `NC(=O)/C(=C/n1cnc(-c2cc(C(F)(F)F)cc(C(F)(F)F)c2)n1)c1ccc(S(=O)(=O)N2CCC2)cc1` [Compound 107, (E)-2-(4-(azetidin-1-ylsulfonyl)phenyl)-3-(3-(3,5-bis(trifluoromethyl)phenyl)-1H-1,2,4-triazol-1-yl)acrylamide], the IC50 in the assay on MM1S cells is under 100 nM; in the assay on Z138 cells, under 100 nM; with 3T3 cells, 100 to 5000 nM.
For the compound `NC(=O)/C(=C/n1cnc(-c2cc(C(F)(F)F)cc(C(F)(F)F)c2)n1)c1cccc(S(=O)(=O)N2CC(F)(F)C2)c1` [Compound 121, (E)-3-(3-(3,5-bis(trifluoromethyl)phenyl)-1H-1,2,4-triazol-1-yl)-2-(3-(3,3-difluoroazetidin-1-ylsulfonyl)phenyl)acrylamide], the results for the IC50 in the assay on MM1S cells, with Z138 cells and in the assay with 3T3 cells were 100 to 5000 nM, 100 to 5000 nM and over 30000 nM, respectively.
As to `CS(=O)(=O)c1ccc(/C(=C\n2cnc(-c3cc(C(F)(F)F)cc(C(F)(F)F)c3)n2)C(N)=O)cc1` [Compound 103, (E)-3-(3-(3,5-bis(trifluoromethyl)phenyl)-1H-1,2,4-triazol-1-yl)-2-(4-(methylsulfonyl)phenyl)acrylamide], the IC50 is under 100 nM in the assay on MM1S cells, 100 to 5000 nM in the assay with Z138 cells and over 30000 nM in the assay on 3T3 cells.
The like results for `NC(=O)/C(=C/n1cnc(-c2cc(C(F)(F)F)cc(C(F)(F)F)c2)n1)c1ccc(S(=O)(=O)N2CCOCC2)cc1` [Compound 108, (E)-3-(3-(3,5-bis(trifluoromethyl)phenyl)-1H-1,2,4-triazol-1-yl)-2-(4-(morpholinosulfonyl)phenyl)acrylamide] were, in that order, under 100 nM, 100 to 5000 nM and 100 to 5000 nM.
As for `CS(=O)(=O)Nc1cccc(/C(=C\n2cnc(-c3cc(C(F)(F)F)cc(C(F)(F)F)c3)n2)C(N)=O)c1` [Compound 102, (E)-3-(3-(3,5-bis(trifluoromethyl)phenyl)-1H-1,2,4-triazol-1-yl)-2-(3-(methylsulfonamido)phenyl)acrylamide], the IC50 in the assay with MM1S cells was 100 to 5000 nM; in the assay with Z138 cells, 100 to 5000 nM; with 3T3 cells, over 30000 nM.
Consider `NC(=O)/C(=C/n1cnc(-c2cc(C(F)(F)F)cc(C(F)(F)F)c2)n1)c1ccc(S(=O)(=O)N2CCCCC2)cc1` [Compound 109, (E)-3-(3-(3,5-bis(trifluoromethyl)phenyl)-1H-1,2,4-triazol-1-yl)-2-(4-(piperidin-1-ylsulfonyl)phenyl)acrylamide], for which the IC50 in the assay with MM1S cells, with Z138 cells and in the assay on 3T3 cells was 100 to 5000 nM each time.
Take `NC(=O)/C(=C/n1cnc(-c2cc(C(F)(F)F)cc(C(F)(F)F)c2)n1)c1ccc(S(=O)(=O)C2CC2)cc1` [Compound 101, (E)-3-(3-(3,5-bis(trifluoromethyl)phenyl)-1H-1,2,4-triazol-1-yl)-2-(4-(cyclopropylsulfonyl)phenyl)acrylamide]: the IC50 in the assay with MM1S cells, in the assay on Z138 cells and in the assay with 3T3 cells was under 100 nM throughout.
On to `NC(=O)/C(=C/n1cnc(-c2cc(C(F)(F)F)cc(C(F)(F)F)c2)n1)c1ccc(S(=O)(=O)N2CCC(F)(F)C2)cc1` [Compound 113, (E)-3-(3-(3,5-bis(trifluoromethyl)phenyl)-1H-1,2,4-triazol-1-yl)-2-(4-(3,3-difluoropyrrolidin-1-ylsulfonyl)phenyl)acrylamide], for which the IC50 with MM1S cells, with Z138 cells and in the assay with 3T3 cells was under 100 nM throughout.
For `NC(=O)/C(=C/n1cnc(-c2cc(C(F)(F)F)cc(C(F)(F)F)c2)n1)c1cccc(S(=O)(=O)N2CCC(C(F)(F)F)CC2)c1` [Compound 126, (E)-3-(3-(3,5-bis(trifluoromethyl)phenyl)-1H-1,2,4-triazol-1-yl)-2-(3-(4-(trifluoromethyl)piperidin-1-ylsulfonyl)phenyl)acrylamide], the IC50 in the assay with MM1S cells was 5000 to 30000 nM; in the assay with Z138 cells it was 100 to 5000 nM; in the assay on 3T3 cells, over 30000 nM.
Taken in the same sequence, the figures for `NC(=O)/C(=C/n1cnc(-c2cc(C(F)(F)F)cc(C(F)(F)F)c2)n1)c1cccc(S(=O)(=O)N2CCC2)c1` [Compound 127, (E)-2-(3-(azetidin-1-ylsulfonyl)phenyl)-3-(3-(3,5-bis(trifluoromethyl)phenyl)-1H-1,2,4-triazol-1-yl)acrylamide] were 100 to 5000 nM, 100 to 5000 nM and 100 to 5000 nM.
The like results for `NC(=O)/C(=C/n1cnc(-c2cc(C(F)(F)F)cc(C(F)(F)F)c2)n1)c1ccc(S(=O)(=O)NC2CC2)cc1` [Compound 100, (E)-3-(3-(3,5-bis(trifluoromethyl)phenyl)-1H-1,2,4-triazol-1-yl)-2-(4-(N-cyclopropylsulfamoyl)phenyl)acrylamide] were, in that order, under 100 nM, under 100 nM and over 30000 nM.
The like results for `NC(=O)/C(=C/n1cnc(-c2cc(C(F)(F)F)cc(C(F)(F)F)c2)n1)c1ccc(S(=O)(=O)N2CCC(F)CC2)cc1` [Compound 114, (E)-3-(3-(3,5-bis(trifluoromethyl)phenyl)-1H-1,2,4-triazol-1-yl)-2-(4-(4-fluoropiperidin-1-ylsulfonyl)phenyl)acrylamide] were, in that order, under 100 nM, under 100 nM and under 100 nM.
